By IC50 is commonly meant the midpoint of a concentration-inhibition curve. A high value points to weaker potency.

This note sets out measurements from patent US8809324B2, “Substituted phenyl-oxathiazine derivatives, method for producing them, drugs containing said compounds and the use thereof” (Sanofi, priority 2011, dated 2014).

Chain of human 11β-HSD1 microsome fraction (P28845 whole entry): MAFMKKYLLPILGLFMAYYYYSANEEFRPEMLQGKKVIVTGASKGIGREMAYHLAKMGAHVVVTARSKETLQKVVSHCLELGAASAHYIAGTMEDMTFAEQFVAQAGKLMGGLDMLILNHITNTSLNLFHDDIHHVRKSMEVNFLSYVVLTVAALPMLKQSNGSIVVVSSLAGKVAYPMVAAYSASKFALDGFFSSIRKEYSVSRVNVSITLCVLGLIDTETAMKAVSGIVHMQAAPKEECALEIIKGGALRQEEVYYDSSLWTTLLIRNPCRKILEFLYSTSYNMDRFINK

The target in this experiment is human 11β-HSD1 microsome fraction (Homo sapiens, UniProt P28845). Kind of experiment: Enzymatic 11Beta-HSD1 test (SPA-based detection). The following applies: human 11β-HSD1 microsomes, [1,2-3H]-cortisone, NADPH, 37° C. 1 hour. The experiment is classed as biochemical. As to the method: Enzymatic 11Beta-HSD1 Test:
To measure the activity of the compounds, an SPA-based detection method (Solly et al. 2005) was employed. First of all, 20 μl of the human 11β-HSD1 microsome fraction (0.2 μg of protein), prepared in 50 mM HEPES, 0.1% BSA (w/v), were applied to a plate with 384 wells. The test compounds (0.09 μl) were applied to the assay plate in 100% DMSO. The reaction was started by addition of 20 μl of [1,2-^3H]-cortisone (0.1 μCi/[…]) in assay buffer comprising 25 mM HEPES, 100 mM KCl, 5 mM NaCl, 2 mM MgCl2 and 0.25 mM NADPH. The plate was agitated at 37° C. for 1 hour. At the same time, a stop solution comprising 20 mg/ml SPA-PVT beads, 1.6 mg/ml monoclonal cortisol antibody and 0.01 mM SSR110887 (inhibitor from the Biovitrium patent) in 50 mM HEPES, 1 M NaCl and 1 M KCl was stirred at room temperature. To stop the reaction, 25 μl of the stop solution were added to each well. The plate was agitated gently at room temperature for 1 further hour and then centrifuged at 500 gav for 1 minute, in order that the SPA beads could settle out. The plate was then read in a Wallac-1450-Microbeta unit with a standard SPA program (counting time 1 min/well). The comparative compound was glycyrrhetinic acid.
Protein and radioactive substrate were dispensed with a Biomek FX unit (Beckman Coulter) for handling liquids. The test compounds were added with a Cybi-Well equipped with a 90 nl pin tool (CyBio).
Lit.: Solly S, Mundt S S, Zokian H J, Juy-Fang Ding G, Hermanowski-Vosatka A, Strulovici B and Zheng W. High-throughput screening of 11β-Hydroxysteroid dehydrogenase type 1 in scintillation proximity format. Assay Drug Dev Technol 2005; 3:377-384.
`CC1(C)OC(NC23CC4CC2CC(C(N)=O)(C4)C3)=NS(=O)(=O)[C@@H]1c1ccc(-c2ccccc2)cc1` (stereo partly drawn) [Example 4, 3a-((R)-5-Biphenyl-4-yl-6,6-dimethyl-4,4-dioxo-5,6-dihydro-4H-4lambda6-[1,4,3]oxathiazin-2-ylamino)hexahydro-2,5-methane-pentalene-2-carboxamide]: the IC50 is 34 nM.
Turning to `CC1(C)OC(NC23CC4CC2CC(C(N)=O)(C4)C3)=NS(=O)(=O)[C@@H]1c1ccc(Br)cc1` (stereo partly drawn) [Example 3, 3a-[(R)-5-(4-Bromophenyl)-6,6-dimethyl-4,4-dioxo-5,6-dihydro-4H-4lambda6-[1,4,3]oxathiazin-2-ylamino]hexahydro-2,5-methanopentalene-2-carboxamide], the IC50 came to 22 nM. This IC50 is about 1.5-fold lower than that of the compound before.
The compound `CC1(C)OC(NC23CC4CC(CC2C4)C3)=NS(=O)(=O)[C@H]1c1ccc(-c2cccc(C(=O)O)c2)cc1` [Example 1, 4′-[(S)-2-(Hexahydro-2,5-methanopentalen-3a-ylamino)-6,6-dimethyl-4,4-dioxo-5,6-dihydro-4H-4lambda6-[1,4,3]oxathiazin-5-yl]-biphenyl-3-carboxylic acid] displayed an IC50 of 14 nM.
To `CC1(C)OC(NC23CC4CC(CC2C4)C3)=NS(=O)(=O)[C@H]1c1ccc(C2CCN(CCC(F)(F)F)CC2)cc1` [Example 2, ((S)-6,6-Dimethyl-4,4-dioxo-5-{4-[1-(3,3,3-trifluoropropyl)-piperidin-4-yl]phenyl}-5,6-dihydro-4H-4lambda6-[1,4,3]oxathiazin-2-yl)-(hexahydro-2,5-methanopentalen-3a-yl)amine] belongs 24 nM.
